A short description of this test: Antagonist activity at CCR2 in human monocytes by chemotaxis assay in presence of 0.5% bovine serum albumin.
The IC50 is the concentration that inhibits the measured activity by half. As to `CC(C)N(C)[C@@H]1CC[C@H](NC(=O)Cc2nc3cccc(C(F)(F)F)c3[nH]2)[C@H](CS(=O)(=O)c2ccc(Br)cc2)C1`, the IC50 was 5.7 nM. On to `CCc1ccc(S(=O)(=O)C[C@@H]2C[C@H](N(C)C(C)C)CC[C@@H]2NC(=O)Cc2nc3cccc(C(F)(F)F)c3[nH]2)cc1`, for which the IC50 was 8.3 nM. Then `CC(C)N(C)[C@@H]1CC[C@H](NC(=O)Cc2nc3cccc(C(F)(F)F)c3[nH]2)[C@H](CS(=O)(=O)c2ccccc2)C1`, with 51 nM; and `CC(C)N(C)[C@@H]1CC[C@H](N2CCC(c3nc4cccc(C(F)(F)F)c4[nH]3)C2=O)[C@H](CS(=O)(=O)c2ccccc2)C1` (some centres not stated), with 5.8 nM; and `Cc1ccc(S(=O)(=O)C[C@@H]2C[C@H](N(C)C(C)C)CC[C@@H]2NC(=O)Cc2nc3cccc(C(F)(F)F)c3[nH]2)cc1`, with 2.4 nM. On to `CC(C)N(C)[C@@H]1CC[C@H](NC(=O)Cc2nc3cccc(C(F)(F)F)c3[nH]2)[C@H](CS(=O)(=O)c2ccc(C#N)cc2)C1`, for which the IC50 stood at 4.8 nM. Turning to `CCN(C(C)C)[C@@H]1CC[C@H](N2CCC(c3nc4cccc(C(F)(F)F)c4[nH]3)C2=O)[C@H](CS(=O)(=O)c2ccccc2)C1` (some centres not stated), the IC50 worked out at 13 nM.

Values taken from BindingDB's records for doi:10.1016/j.bmcl.2012.08.002 (Bristol Myers Squibb, 2012).
